Read-outs that look alike come from different tables or passages of the source.
Tests used:
YFV 17D strain = assay: microbe, parasite or virus in culture; format: cell-based, yellow fever virus
in vitro = conditions: human
protease for YFV = protease for YFV (Yellow fever virus, UniProt P03314); format: biochemical
polymerase for YFV = polymerase for YFV (Yellow fever virus, UniProt P03314); format: biochemical
[1] = Yellow fever virus, Huh-7, read-out: EC50 (Neutral Red)
[2] = Yellow fever virus, Huh-7, read-out: EC50 (Visual)

Chain of polymerase for YFV (P03314 2507-3411 limits assumed): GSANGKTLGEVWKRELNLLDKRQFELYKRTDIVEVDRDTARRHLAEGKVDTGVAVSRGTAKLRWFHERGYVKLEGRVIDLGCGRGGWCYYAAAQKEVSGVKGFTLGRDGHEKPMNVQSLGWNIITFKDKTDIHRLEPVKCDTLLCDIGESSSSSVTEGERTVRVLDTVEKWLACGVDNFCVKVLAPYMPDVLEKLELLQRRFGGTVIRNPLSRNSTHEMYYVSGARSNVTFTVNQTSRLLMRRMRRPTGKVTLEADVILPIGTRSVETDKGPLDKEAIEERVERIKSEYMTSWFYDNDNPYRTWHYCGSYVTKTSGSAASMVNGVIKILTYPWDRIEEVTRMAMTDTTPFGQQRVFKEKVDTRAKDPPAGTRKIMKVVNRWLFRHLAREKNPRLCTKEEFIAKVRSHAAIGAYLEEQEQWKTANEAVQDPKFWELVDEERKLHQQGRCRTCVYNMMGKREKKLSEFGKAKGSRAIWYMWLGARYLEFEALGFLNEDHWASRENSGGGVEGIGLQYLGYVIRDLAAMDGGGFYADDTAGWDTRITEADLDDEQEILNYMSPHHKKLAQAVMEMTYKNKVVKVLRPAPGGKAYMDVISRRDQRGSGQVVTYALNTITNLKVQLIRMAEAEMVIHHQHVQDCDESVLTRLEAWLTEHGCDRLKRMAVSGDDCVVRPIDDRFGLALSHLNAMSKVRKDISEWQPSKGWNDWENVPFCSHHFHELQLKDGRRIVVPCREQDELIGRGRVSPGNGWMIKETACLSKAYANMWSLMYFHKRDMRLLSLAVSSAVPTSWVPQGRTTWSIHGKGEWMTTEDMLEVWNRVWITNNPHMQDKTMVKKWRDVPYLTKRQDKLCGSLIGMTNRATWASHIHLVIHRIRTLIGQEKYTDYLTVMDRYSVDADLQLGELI
Chain of protease for YFV (P03314 1485-2107 limits assumed): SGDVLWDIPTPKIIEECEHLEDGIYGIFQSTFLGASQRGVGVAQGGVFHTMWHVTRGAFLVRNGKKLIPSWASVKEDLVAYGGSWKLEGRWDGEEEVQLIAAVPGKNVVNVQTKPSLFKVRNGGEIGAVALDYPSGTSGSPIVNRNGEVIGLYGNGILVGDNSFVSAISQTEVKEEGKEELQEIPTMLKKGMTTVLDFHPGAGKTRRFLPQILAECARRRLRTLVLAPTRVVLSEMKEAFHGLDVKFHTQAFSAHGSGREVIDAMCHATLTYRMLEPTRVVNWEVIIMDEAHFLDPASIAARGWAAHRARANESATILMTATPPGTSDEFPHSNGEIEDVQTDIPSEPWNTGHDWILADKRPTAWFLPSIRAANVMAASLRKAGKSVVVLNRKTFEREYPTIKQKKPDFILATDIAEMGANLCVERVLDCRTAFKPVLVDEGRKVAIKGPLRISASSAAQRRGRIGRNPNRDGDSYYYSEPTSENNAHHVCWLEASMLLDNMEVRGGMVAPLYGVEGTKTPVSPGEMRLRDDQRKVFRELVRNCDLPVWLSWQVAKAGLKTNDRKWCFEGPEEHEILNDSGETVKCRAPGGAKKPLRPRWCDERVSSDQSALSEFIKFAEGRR
Chain of protease for YFV (P03314 1355-1484 partner limits assumed): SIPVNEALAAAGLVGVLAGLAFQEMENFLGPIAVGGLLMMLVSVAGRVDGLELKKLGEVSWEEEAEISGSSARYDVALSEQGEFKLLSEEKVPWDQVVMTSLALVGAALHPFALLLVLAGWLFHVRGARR

Compound: CCn1nc(C(=O)O)c(=O)c2cc3c(cc21)OCO3 [Cinoxacin]
- EC50 (YFV 17D strain; [1]): > 100 µM
- EC50 (YFV 17D strain; [2]): > 100 µM
- CC50 (in vitro; CC50 (Neutral Red)): > 100 µM
- CC50 (in vitro; CC50 (Visual)): > 100 µM

Compound: O=C1[C@H](CC[C@H](O)c2ccc(F)cc2)[C@@H](c2ccc(O)cc2)N1c1ccc(F)cc1 [Ezetimibe]
- EC50 (YFV 17D strain; [1]): > 29 µM
- EC50 (YFV 17D strain; [2]): > 32 µM
- CC50 (in vitro; CC50 (Neutral Red)): 29 µM
- CC50 (in vitro; CC50 (Visual)): 32 µM

Compound: Fc1ccc([C@@H]2CCNC[C@H]2COc2ccc3c(c2)OCO3)cc1 [Paroxetine]
- EC50 (YFV 17D strain; [1]): > 3.1 µM
- EC50 (YFV 17D strain; [2]): > 3.2 µM
- CC50 (in vitro; CC50 (Neutral Red)): 3.1 µM
- CC50 (in vitro; CC50 (Visual)): 3.2 µM

Compound: Oc1ccc(-c2nc(-c3ccncc3)c(-c3ccc(F)cc3)[nH]2)cc1 [SB202190]
- EC50 (YFV 17D strain; [1]): > 100 µM
- EC50 (YFV 17D strain; [2]): > 100 µM
- CC50 (in vitro; CC50 (Neutral Red)): > 100 µM
- CC50 (in vitro; CC50 (Visual)): > 100 µM

Compound: N-{4-cyano-5-[(4-fluorophenyl)amino]-1H-pyrazol-3-yl}naphthalene-2-sulfonamide [Compound 11626003]
- EC50 (YFV 17D strain; read-out: EC50 (Neutral Red)): 3.3 µM
- EC50 (YFV 17D strain; read-out: EC50 (Visual)): 3.2 µM
- activity against the protease for YFV (protease for YFV): not active
- activity against the polymerase for YFV (polymerase for YFV): not active

From paper PMC8574157 (Journal of chemical information and modeling, 2021)
